In PubChem BioAssay (NCI):
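Grown in 96-well plates, cells were treated for 48 hours with each compound at five concentrations. Insufficient inhibition: endpoint recorded as highest concentration tested. At the GI50, growth is halved. TGI denotes the concentration required for complete inhibition of growth.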

How the values were obtained:
Test in all cases: NCI anticancer screen, dose series, 48 h
[1] = system: NCI-H226 lung
[2] = system: NCI-H23 lung
[3] = system: NCI-H460 lung
[4] = system: NCI-H522 lung
[5] = system: OVCAR-3 ovarian
[6] = system: OVCAR-4 ovarian
[7] = system: OVCAR-5 ovarian
[8] = system: OVCAR-8 ovarian
[9] = system: PC-3 prostate
[10] = system: RPMI-8226 leukemia
[11] = system: RXF 393 renal
[12] = system: SF-268 CNS
[13] = system: SF-295 CNS
[14] = system: SF-539 CNS
[15] = system: SK-MEL-2 melanoma
[16] = system: SK-MEL-28 melanoma
[17] = system: SK-MEL-5 melanoma
[18] = system: SK-OV-3 ovarian
[19] = system: SN12C renal
[20] = system: SNB-19 CNS
[21] = system: SNB-75 CNS
[22] = system: SR leukemia
[23] = system: SW-620 colon
[24] = system: TK-10 renal
[25] = system: U251 CNS
[26] = system: UACC-257 melanoma
[27] = system: UACC-62 melanoma
[28] = system: UO-31 renal

## O=C(CCCCN1CCOCC1)Nc1ccc(Cn2nnc3c2C(=O)c2nnn(Cc4ccc(NC(=O)CCCCN5CCOCC5)cc4)c2C3=O)cc1
[1]
  TGI: 1840 nM
[2]
  GI50: 154 nM
  TGI: 522 nM
[3]
  GI50: 112 nM
  TGI: 530 nM
[4]
  GI50: 113 nM
  TGI: 362 nM
[5]
  GI50: 167 nM
  TGI: 559 nM
[6]
  GI50: 177 nM
  TGI: 769 nM
[7]
  GI50: 107 nM
  TGI: 244 nM
[8]
  GI50: 257 nM
  TGI: 1140 nM
[9]
  GI50: 404 nM
  TGI: 2570 nM
[10]
  GI50: 596 nM
  TGI: 2030 nM
[11]
  GI50: 717 nM
  TGI: 1810 nM
[12]
  GI50: 400 nM
  TGI: 1600 nM
[13]
  GI50: 381 nM
  TGI: 1050 nM
[14]
  GI50: 132 nM
  TGI: 355 nM
[15]
  GI50: 351 nM
  TGI: 1220 nM
[16]
  GI50: 260 nM
  TGI: 642 nM
[17]
  GI50: 71.7 nM
  TGI: 141 nM
[18]
  GI50: 930 nM
  TGI: 1830 nM
[19]
  GI50: 94.6 nM
  TGI: 203 nM
[20]
  GI50: 187 nM
  TGI: 566 nM
[21]
  GI50: 234 nM
  TGI: 806 nM
[22]
  GI50: 406 nM
  TGI: 2650 nM
[23]
  GI50: 201 nM
  TGI: 800 nM
[24]
  GI50: 2020 nM
  TGI: 39600 nM
[25]
  GI50: 329 nM
  TGI: 879 nM
[26]
  GI50: 141 nM
  TGI: 399 nM
[27]
  GI50: 116 nM
  TGI: 341 nM
[28]
  GI50: 1240 nM
  TGI: 17500 nM
